This note sets out measurements from patent US7939552B2, “Benzyloxypropylamine derivative” (Nippon Zoki Pharmaceutical Co., Ltd., priority 2005, dated 2011).

Each structure is given as a SMILES string. Read-outs that look alike come from different tables or passages of the source.

The target of one series is T1, human NK1 receptor (Homo sapiens, UniProt P25103).
T1 construct: expressed in transfected cells; host or cells: CHO cells (hNK1-CHO)
Description: Human NK1 receptor binding assay (3H-Sar9-SP, hNK1-CHO cells). As to conditions: room temperature 60 minutes. As for the experimental part:
A supernatant liquid was removed from an hNK1-CHO cell incubation flask in a confluent state, trypsin (0.25%)-EDTA (1 mmol/L) (Gibco) was added thereto and the cells were exfoliated and recovered. After they were washed with a buffer A (pH 7.5; 50 mmol/L Tris hydrochloride 50 mmol/L, 150 mmol/L NaCl and 0.02% BSA) for one time (at […] for 5 minutes), cell numbers were adjusted and re-floated on a buffer for assay {a buffer A to which 40 μg/mL bacitracin (Sigma), 4 μg/mL leupeptin (Sigma), 4 μg/mL chymostatin (Sigma) and 4 μg/mL phosphoramidon (Sigma) were added}. The hNK1-CHO cells (100 μL) were placed in a tube (TPX-12, Maruemu) in which 300 μL of the buffer for assay was charged so as to make cells 10^5 per tube, 50 μL of a hot solution (^3H-Sar^9-SP, final concentration: […]) and 50 μL of a substance to be tested were added (a system of 500 μL), stirred and made to react at room temperature for 60 minutes. After completion of the reaction, it was filtered through a GF/B filter (25 mm diameter, Whatman) which was previously dipped in 0.1% polyethyleneimine p-70 (Wako Pure Chemical), washed with the buffer A (4 mL each for three times), placed in a vial and dried at 60° C. for one night. After drying, 10 mL of a scintillator (AL-1, toluene base, Dojindo) was added thereto and dpm was measured by a liquid scintillation counter (for 5 minutes/vial).
With regard to a nonspecific binding, it was defined as the dpm when 10 μmol/L of the substance P was added instead of the substance to be tested. The experiment was conducted in duplicate and at least three experiments were repeated. IC50 value was calculated using a probit method (statistic library II, Yukms).

The target in the next series is T2, NK1 receptor (Cavia porcellus, UniProt P30547).
T2 construct: the brain was excised and the striatum was collected; from tissue; host or cells: striatum of male Hartley guinea pigs (Nippon SLC), homogenate after oral dosing
Description: Test for transfer into cerebral center of guinea pigs ([3H]substance P binding in striatum homogenate after oral dosing). Type of series: in vivo. To be noted: 4 hours after oral administration of 20 mg/mL at 5 mL/kg. As for the experimental part:
Male guinea pigs of a Hartley strain (four weeks age, SPF, Nippon SLC) were purchased, subjected to a preliminary breeding for not shorter than one week, fasted for one night and used for the test where one group comprised eight guinea pigs. As a substance to be tested, the Compound 21 which is the compound of the present invention was suspended in 1% methyl cellulose […] to make 20 mg/mL. As a substance for comparison, LY-303870 [(R)-1-[N-(2-methoxybenzyl)acetylamino]-3-(1H-indol-3-yl)-2-[N-(2-(4-(piperidin-1-yl)piperidin-1-yl)acetyl)amino]propane] was dissolved in a 1% aqueous solution of MC to make 20 mg/mL.
A test was conducted in accordance with a method of Iyengar, et al. Thus, a 1% aqueous solution of MC and the above-prepared solution of the test substance were orally administered in an administering dose of 5 mL/kg, then the animals were killed by carbon dioxide gas after 4 hours from administration of the test substance solution and after 1 hour from administration of the 1% aqueous MC solution and the comparative substance solution, the brain was excised and the striatum was collected. After measuring its wet weight, 50 mmol/L Tris-HCl (pH 7.5) was added thereto so as to make it 40 mg/mL followed by homogenizing for 10 seconds. […]

Series [1] in a line: Pharmacokinetic test in blood by a single oral administration to guinea pigs. Type of series: in vivo. As to conditions: 100 mg/kg orally, plasma; for AUC(0-t): read-out: AUC 0-24 h; for half-life: read-out: t½ (converted). As for the experimental part: Male guinea pigs of a Hartley strain (SPF, Nippon SLC) were purchased and subjected to a preliminary breeding for one week and the normally grown ones were fasted for one night and used for the test. The compound of the present invention was suspended in 1 g/dL methyl cellulose solution and 100 mg/kg was orally administered in an administering dose of 5 mL/kg. After 0.5, 1, 2, 4, 8 and 24 hour(s) from the oral administration, about 0.4 mL of blood was collected from the vein of median of foreleg using a heparinized capillary. Plasma prepared by its centrifugation (at 12,000 rpm for 10 minutes) was stored at −80° C. until the measurement. Measurement of the concentration in blood was conducted by a UV-detecting HPLC method.

[2] abbreviates: male, Hartley, guinea pig, po, read-out: Cmax.
The mark [3] stands for this setting: male, Hartley, guinea pig, po, read-out: Tmax.

T1 sequence (P25103 whole entry): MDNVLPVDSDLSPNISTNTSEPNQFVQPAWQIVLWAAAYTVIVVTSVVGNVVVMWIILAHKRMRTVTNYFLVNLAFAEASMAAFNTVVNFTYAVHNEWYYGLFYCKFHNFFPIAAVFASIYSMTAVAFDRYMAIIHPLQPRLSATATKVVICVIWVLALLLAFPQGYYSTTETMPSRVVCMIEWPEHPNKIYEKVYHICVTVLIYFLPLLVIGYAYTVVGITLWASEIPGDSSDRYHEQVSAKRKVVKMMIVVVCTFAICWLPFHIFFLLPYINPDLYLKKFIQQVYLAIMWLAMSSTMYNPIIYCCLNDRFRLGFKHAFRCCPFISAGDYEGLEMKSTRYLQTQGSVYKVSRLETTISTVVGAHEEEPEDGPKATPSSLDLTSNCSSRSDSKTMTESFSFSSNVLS
T2 sequence (P30547 whole entry): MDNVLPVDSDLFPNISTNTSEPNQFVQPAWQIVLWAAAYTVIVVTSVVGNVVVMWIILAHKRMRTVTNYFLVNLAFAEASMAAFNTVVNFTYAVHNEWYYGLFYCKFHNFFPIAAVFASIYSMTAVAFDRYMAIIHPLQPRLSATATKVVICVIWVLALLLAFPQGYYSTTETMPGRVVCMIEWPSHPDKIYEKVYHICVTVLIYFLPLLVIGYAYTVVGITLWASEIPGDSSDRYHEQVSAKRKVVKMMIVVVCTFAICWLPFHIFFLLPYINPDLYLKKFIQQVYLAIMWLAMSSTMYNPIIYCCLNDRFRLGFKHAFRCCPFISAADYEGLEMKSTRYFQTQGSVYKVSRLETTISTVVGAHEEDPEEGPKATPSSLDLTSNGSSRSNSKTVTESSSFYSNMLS

Consider `O=C(NCC(COCc1cc(C(F)(F)F)cc(C(F)(F)F)c1)c1ccc(F)cc1)c1cc[n+]([O-])cc1` (centres unmarked) [Compound 21, N-[3-(3,5-Bis(trifluoromethyl)benzyloxy)-2-(4-fluorophenyl)propyl]-1-oxyisonicotinamide], for which, at human NK1 receptor, the IC50 (in general, the midpoint of a concentration-inhibition curve) was determined as 2.9 nM. Moreover, the “specific binding of [3H]substance P” value at NK1 receptor (guinea pig striatum homogenate, control group 1083.4±95.5 dpm) came out at 228.2±15.5 dpm. Moreover, the “occupying rate of the NK1 receptor in the brain” value at NK1 receptor (guinea pigs, mean value ±standard deviation) worked out at 79.9±1.4%. In series [1], the Cmax (in general, the highest concentration seen after dosing) turned out to be 26900 ng/mL; the Tmax – broadly, the time from dosing to the highest level – turned out to be 4 h; the t½ – broadly, how long it takes for the measured level to halve – is given as 3.2 h.
`Cl.O=C(NCC(COCc1cc(C(F)(F)F)cc(C(F)(F)F)c1)c1ccccc1)C1CCNCC1` (centres unmarked) [Compound 4, N-[3-(3,5-Bis(trifluoromethyl)benzyloxy)-2-phenylpropyl]piperidine-4-carboxamide hydrochloride] registered an IC50 on human NK1 receptor of 29.3 nM. The AUC(0-t) in series [1] (male, Hartley, guinea pig, po) stood at 28.2 µg·h/mL. Besides, the Cmax in series [1] (setting [2]) stood at 2000 ng/mL. Further, the Tmax in series [1] (setting [3]) was 8 h.
Molecule `Cl.O=C(NCC(COCc1cc(C(F)(F)F)cc(C(F)(F)F)c1)c1ccccc1)c1ccc(CN2CCCC2)cc1` (centres unmarked) [Compound 64, N-[3-(3,5-Bis(trifluoromethyl)benzyloxy)-2-phenylpropyl]-4-pyrrolidin-1-ylmethylbenzamide hydrochloride] yielded an IC50 at human NK1 receptor of 56.4 nM. Besides, in series [1] (male, Hartley, guinea pig, po), the AUC(0-t) was 19.7 µg·h/mL and the half-life is 8 h. Also, in series [1] (setting [2]), the Cmax is 1700 ng/mL. In series [1] (setting [3]), the Tmax was found to be 4 h.
In the same order, the values of `O=C(Cc1cc[n+]([O-])cc1)NCC(COCc1cc(C(F)(F)F)cc(C(F)(F)F)c1)c1ccccc1` (centres unmarked) [Compound 39, N-[3-(3,5-Bis(trifluoromethyl)benzyloxy)-2-phenylpropyl]-2-(1-oxypyridin-4-yl)acetamide] are 7.3 nM, 379 µg·h/mL, 3.2 h, 25700 ng/mL and 8 h.
For `O=C(Cc1ccc[n+]([O-])c1)NCC(COCc1cc(C(F)(F)F)cc(C(F)(F)F)c1)c1ccc(F)cc1` (centres unmarked) [Compound 42, N-[3-(3,5-Bis(trifluoromethyl)benzyloxy)-2-(4-fluorophenyl)propyl]-2-(1-oxypyridin-3-yl)acetamide] the same measures were 4 nM, 215 µg·h/mL, 3 h, 16900 ng/mL and 4 h.
In turn, `O=C(NCC(COCc1cc(C(F)(F)F)cc(C(F)(F)F)c1)c1ccccc1)c1ccc[n+]([O-])c1` (centres unmarked) [Compound 22, N-[3-(3,5-Bis(trifluoromethyl)benzyloxy)-2-phenylpropyl]-1-oxynicotinamide] showed a half-maximal inhibitory concentration (IC50) on human NK1 receptor of 6.4 nM. In series [1] (male, Hartley, guinea pig, po), the AUC(0-t) was found to be 200 µg·h/mL and the half-life was 2.6 h. The Cmax in series [1] (setting [2]) came out at 18300 ng/mL. Moreover, the Tmax in series [1] (setting [3]) was determined as 2 h.
For `O=C(CCc1cc[n+]([O-])cc1)NCC(COCc1cc(C(F)(F)F)cc(C(F)(F)F)c1)c1ccccc1` (centres unmarked) [Compound 51, N-[3-(3,5-Bis(trifluoromethyl)benzyloxy)-2-phenylpropyl]-3-(1-oxypyridin-4-yl)propionamide] the same measures were 9.4 nM, 103 µg·h/mL, 3.4 h, 13800 ng/mL and 1 h.
